Structures can show the parent of a compound that is named as a salt. Where two headings read alike, the source gives them in different places.

Assay [1] has as its system IL-12 activation of STAT4 in NK-92 cells. The assay is described as follows: IL-12 activation of STAT4 in NK-92 cells using MSD as readout. It is filed as cell-based. The note with it: Homo sapiens. On the procedure: IL-2 is added freshly to the medium with each medium refreshment step. Cells are cultured in a humidified incubator at 37° C. 5% CO2.
NK-92 cells are pre-incubated with test compounds or vehicle for 30 min at 37° C. 5% CO2. […] NK-92 cells are triggered with rhIL-12 for 45 min at 37° C. 5% CO2.
After 45 min of cytokine stimulation the cells are lysed by addition of 50 μL ice-cold lysis buffer (supplemented with the MSD kit). Plates are frozen at −80° C. for minimal 1 hour to lyse the cells completely. After thawing the levels of phospho-STAT4 are quantified using the Phospho-STAT4 (Tyr693) kit (MSD, Catalogue number K150PAD-2) according to the manufacturer's instructions. Electroluminescent signal is measured on the MSD reader.
The percentage inhibition is calculated as: […]
RLU (trigger/veh): Relative lumescent signal determined in presence of vehicle and trigger
RLU (test compound): Relative luminescent signal determined in presence of test compounds)
PIN values are plotted for compounds tested in dose-response and IC50 values are derived using LIMS Software applying non-linear regression (sigmoidal) curve fitting. The data are expressed as the average IC50 from different experiments.

The subject of assay [2] is IFNα activation of STAT1 in PBMC. Kind of assay: IFNα activation of STAT1 in PBMC. It is filed as cell-based. The note with it: Homo sapiens. Summed up: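 Human PBMC, with red cells lysed by NH4Cl, were pre-treated with compound for 30 min at 37 °C and 5% CO2. They were then stimulated for 30 min with recombinant human IFNα at 5 ng/mL final.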
Assay [3] deals with IL-12 activation of STAT4 in NK-92 cells. Kind of assay: IL-12 activation of STAT4 in NK-92 cells using AphaLISA SureFire technology. It is filed as cell-based. The note with it: Homo sapiens. Summed up: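 NK-92 cells, starved of rhIL-2 overnight, were stimulated with rhIL-12 for 30 min at 37 °C with test compounds, then lysed. Phospho-STAT4 (Tyr693) was read by AlphaLISA SureFire. Percent inhibition versus the vehicle-plus-trigger signal was fitted by sigmoidal nonlinear regression to give IC50, averaged over experiments.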

Assay [4] concerns the target T1, Recombinant human TYK2 catalytic domain (amino acids 871-1187) (Homo sapiens, UniProt P29597).
T1 construct: catalytic domain (amino acids 871-1187)
T1 sequence (P29597 871-1187): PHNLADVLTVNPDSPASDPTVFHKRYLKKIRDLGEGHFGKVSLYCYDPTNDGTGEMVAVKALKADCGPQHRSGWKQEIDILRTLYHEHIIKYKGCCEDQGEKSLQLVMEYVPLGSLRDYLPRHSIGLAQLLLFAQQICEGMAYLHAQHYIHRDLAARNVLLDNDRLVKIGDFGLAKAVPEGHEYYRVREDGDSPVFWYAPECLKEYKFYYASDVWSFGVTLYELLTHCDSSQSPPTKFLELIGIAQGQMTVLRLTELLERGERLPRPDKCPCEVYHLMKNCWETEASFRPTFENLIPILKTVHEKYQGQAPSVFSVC
The assay is described as follows: TYK2 radioactive assay polyGT substrate. Further: 0.1 µM ATP. It is filed as biochemical. Put shortly:
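Reaction at 30° C. for 120 min, ended with 150 mM phosphoric acid, washed, counted; percent inhibition scaled between vehicle and 10 μM staurosporine cpm.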

The target in assay [5] is T2, Recombinant human JAK2 (catalytic domain, amino acids 808-1132) (Homo sapiens, UniProt O60674).
T2 construct: catalytic domain, amino acids 808-1132
Kind of assay: JAK2 inhibition assay. Further: 0.7 µM ATP. It is filed as biochemical. The note with it: read-out: JAK2 potency IC50.

Assay [6] concerns the target T3, Recombinant human JAK1 (catalytic domain, amino acids 866-1154) (Homo sapiens, UniProt P23458).
T3 construct: catalytic domain, amino acids 866-1154
The assay is described as follows: JAK1 inhibition assay. It is filed as biochemical. Particulars: read-out: JAK1 potency IC50.

Assay [7] deals with Recombinant human JAK3 catalytic domain (amino acids 781-1124) (Homo sapiens, UniProt P52333). The assay is described as follows: JAK3 inhibition assay. It is filed as biochemical. Put shortly: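 Radiometric kinase reaction run 45 min at 30° C., stopped with phosphoric acid; activity as vehicle cpm minus 10 μM staurosporine cpm.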
Setting [8] is: NK92, NK-92 cells, rhIL-12 25 ng/mL, MSD readout, read-out: IL12 pSTAT4 IC50.
[9] abbreviates: IFNα activation of STAT1 in PBMC, average IC50, read-out: IFNα signaling inhibitory potency IC50.
Setting [10] is: NK92, IL-12 activation of STAT4 in NK-92 cells, AlphaLISA SureFire, average IC50, read-out: IL12 pSTAT4 IC50.

T2 sequence (O60674 808-1132): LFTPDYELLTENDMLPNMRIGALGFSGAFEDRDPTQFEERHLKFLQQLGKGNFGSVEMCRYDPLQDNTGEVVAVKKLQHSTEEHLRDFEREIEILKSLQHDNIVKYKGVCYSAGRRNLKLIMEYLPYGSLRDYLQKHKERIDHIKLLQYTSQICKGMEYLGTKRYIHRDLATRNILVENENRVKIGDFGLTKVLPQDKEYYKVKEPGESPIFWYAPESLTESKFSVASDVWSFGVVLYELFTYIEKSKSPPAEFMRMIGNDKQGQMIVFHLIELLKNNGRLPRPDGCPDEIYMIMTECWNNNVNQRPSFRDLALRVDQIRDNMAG
T3 sequence (P23458 866-1154): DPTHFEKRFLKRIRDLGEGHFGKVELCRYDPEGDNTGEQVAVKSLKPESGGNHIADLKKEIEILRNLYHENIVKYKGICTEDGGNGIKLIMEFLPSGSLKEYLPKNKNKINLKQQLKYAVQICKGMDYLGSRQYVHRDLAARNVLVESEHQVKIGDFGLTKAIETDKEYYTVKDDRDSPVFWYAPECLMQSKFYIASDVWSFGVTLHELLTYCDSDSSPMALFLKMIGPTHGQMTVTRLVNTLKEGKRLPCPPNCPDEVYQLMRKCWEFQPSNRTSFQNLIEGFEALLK
Sequence of Recombinant human JAK3 catalytic domain (amino acids 781-1124) (P52333 781-1124): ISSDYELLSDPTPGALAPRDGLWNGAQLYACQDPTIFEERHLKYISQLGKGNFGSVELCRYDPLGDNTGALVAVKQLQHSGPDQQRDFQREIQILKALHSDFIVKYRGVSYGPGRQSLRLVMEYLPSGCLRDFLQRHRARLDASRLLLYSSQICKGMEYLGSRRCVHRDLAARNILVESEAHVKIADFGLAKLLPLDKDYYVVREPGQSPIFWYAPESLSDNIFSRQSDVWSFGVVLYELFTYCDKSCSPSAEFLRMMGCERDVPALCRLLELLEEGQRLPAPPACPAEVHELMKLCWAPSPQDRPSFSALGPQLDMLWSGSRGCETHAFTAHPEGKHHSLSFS

Consider `Cc1cc(S(C)(=O)=O)cc(F)c1Oc1cc(Nc2cc(N)ncn2)c2ncn(C)c2n1` [Compound 2, N-[5-(2-Fluoro-4-methanesulfonyl-6-methyl-phenoxy)-3-methyl-3H-imidazo[4,5-b]pyridin-7-yl]-pyrimidine-4,6-diamine], for which the IC50 (usually the concentration at which inhibition is half-maximal) in assay [1] (NK92, read-out: IL12 pSTAT4 IC50) turned out to be 259 nM; in assay [2] (PBMC, read-out: IFNα signaling inhibitory potency IC50 (nM)) it was 87 nM; in assay [3] (NK92, read-out: IL12 pSTAT4 IC50 (nM)), 73.5 nM.

`Cc1cc(C#N)ncc1Oc1cc(Nc2ccc(C(=O)NCC(C)O)cn2)c2ncn(C)c2n1` (stereo not shown) [Compound 24, 6-[5-(6-Cyano-4-methyl-pyridin-3-yloxy)-3-methyl-3H-imidazo[4,5-b]pyridin-7-ylamino]-N-(2-hydroxy-propyl)-nicotinamide]: the figures for the IC50 in assay [4], in assay [1] (setting [8]) and in assay [2] (setting [9]) were 9.01 nM, 3370 nM and 151 nM, respectively.

In the case of `Cc1cc(C#N)ncc1Oc1cc(Nc2ccc(CN)cc2)c2ncn(C)c2n1` [Compound 57, 5-[7-[4-(aminomethyl)anilino]-3-methyl-imidazo[4,5-b]pyridin-5-yl]oxy-4-methyl-pyridine-2-carbonitrile formate salt], the IC50 turned out to be 45.4 nM in assay [4], 7460 nM in assay [1] (setting [8]) and 405 nM in assay [2] (setting [9]).

`Cc1cc(C#N)ncc1Oc1cc(Nc2ccc(S(C)(=O)=O)cc2)c2ncn(C)c2n1` [Compound 60, 4-methyl-5-[3-methyl-7-(4-methylsulfonylanilino)imidazo[4,5-b]pyridin-5-yl]oxy-pyridine-2-carbonitrile]: the IC50 in assay [4] turned out to be 9.72 nM; in assay [1] (setting [8]) it was 1150 nM; in assay [2] (setting [9]), 73 nM.

Turning to `Cc1cc(C#N)ncc1Nc1cc(Nc2ccc(C(=O)N(C)C)cc2)c2ncn(C)c2n1` [Compound 66, 4-[[5-[(6-cyano-4-methyl-3-pyridyl)amino]-3-methyl-imidazo[4,5-b]pyridin-7-yl]amino]-N,N-dimethyl-benzamide], the 50% inhibitory concentration (IC50) in assay [4] amounted to 11.7 nM; in assay [1] (setting [8]), 1650 nM; in assay [2] (setting [9]), 138 nM; in assay [3] (setting [10]), 205 nM.

In the case of `Cc1cc(C#N)ncc1Oc1cc(Nc2ccc(N3CCOC[C@@H]3C)cn2)c2ncn(C)c2n1` [Compound 85, 4-methyl-5-[3-methyl-7-[[5-[(3S)-3-methylmorpholin-4-yl]pyridin-2-yl]amino]imidazo[4,5-b]pyridin-5-yl]oxypyridine-2-carbonitrile], the IC50 in assay [5] was found to be 10.5 nM; in assay [6], 30.4 nM; in assay [4], 4.81 nM; in assay [2] (setting [9]) it was 115 nM; in assay [7], 479 nM; in assay [3] (setting [10]), 154 nM.

As for `Cc1cc(C#N)ncc1Oc1cc(Nc2ccc(OC3CCN(C)CC3)cn2)c2ncn(C)c2n1` [Compound 86, 4-methyl-5-[3-methyl-7-[[5-(1-methylpiperidin-4-yl)oxypyridin-2-yl]amino]imidazo[4,5-b]pyridin-5-yl]oxypyridine-2-carbonitrile], the 50% inhibitory concentration (IC50) in assay [5] is 22.9 nM; in assay [6], 197 nM; in assay [4], 9.06 nM; in assay [2] (setting [9]), 121 nM; in assay [7], 446 nM; in assay [3] (setting [10]), 506 nM.

Turning to `Cc1cc(C#N)ncc1Oc1cc(Nc2ccc(C3CCOCC3)cn2)c2ncn(C)c2n1` [Compound 87, 4-methyl-5-[3-methyl-7-[[5-(oxan-4-yl)pyridin-2-yl]amino]imidazo[4,5-b]pyridin-5-yl]oxypyridine-2-carbonitrile], the concentration for half-maximal inhibition (IC50) in assay [5] worked out at 38.8 nM; in assay [6] it was 73.1 nM; in assay [4] it was 8.81 nM; in assay [2] (setting [9]), 158 nM; in assay [7], 979 nM; in assay [3] (setting [10]), 266 nM.

As for `Cc1cc(C#N)ncc1Oc1cc(Nc2ccc(C3(O)COC3)cc2)c2ncn(C)c2n1` [Compound 89, 5-[7-[4-(3-hydroxyoxetan-3-yl)anilino]-3-methylimidazo[4,5-b]pyridin-5-yl]oxy-4-methylpyridine-2-carbonitrile], the IC50 is 110 nM in assay [5]; 71.5 nM in assay [6]; 11 nM in assay [4]; 266 nM in assay [2] (setting [9]); 1990 nM in assay [7]; 476 nM in assay [3] (setting [10]).

With `CC(C)[C@@H](Nc1cc(Nc2cc(N)ncn2)c2ncn(C)c2n1)C(F)(F)F` [Compound 98, N7-(6-aminopyrimidin-4-yl)-3-methyl-N5-[(1R)-2-methyl-1-(trifluoromethyl)propyl]imidazo[4,5-b]pyridine-5,7-diamine], the IC50 in assay [5] worked out at 6.31 nM; in assay [6] it was 28.2 nM; in assay [4] it was 3.04 nM; in assay [2] (setting [9]) it was 38 nM; in assay [7] it was 48.2 nM; in assay [3] (setting [10]) it was 18.9 nM.

For the compound `Cc1cc(C#N)ncc1Oc1cc(Nc2ccc(C(=O)N3CC(O)C3)nn2)c2ncn(C)c2n1` [Compound 115, 5-[7-[[6-(3-hydroxyazetidine-1-carbonyl)pyridazin-3-yl]amino]-3-methyl-imidazo[4,5-b]pyridin-5-yl]oxy-4-methyl-pyridine-2-carbonitrile], the half-maximal inhibitory concentration (IC50) in assay [5] was 29.1 nM; in assay [6], 107 nM; in assay [4], 8.88 nM; in assay [2] (setting [9]), 144 nM; in assay [7], 2110 nM; in assay [3] (setting [10]), 968 nM.

Take `COC1CN(C(=O)c2ccc(Nc3cc(Oc4cnc(C#N)cc4C)nc4c3ncn4C)nn2)C1` [Compound 116, 5-[7-[[6-(3-methoxyazetidine-1-carbonyl)pyridazin-3-yl]amino]-3-methyl-imidazo[4,5-b]pyridin-5-yl]oxy-4-methyl-pyridine-2-carbonitrile]: the 50% inhibitory concentration (IC50) turned out to be 28.3 nM in assay [5]; 151 nM in assay [6]; 5.41 nM in assay [4]; 113 nM in assay [2] (setting [9]); 1200 nM in assay [7]; 79 nM in assay [3] (setting [10]).

Regarding `COCC1CN(C(=O)c2ccc(Nc3cc(Oc4cnc(C#N)cc4C)nc4c3ncn4C)nn2)C1` [Compound 117, 5-[7-[[6-[3-(methoxymethyl)azetidine-1-carbonyl]pyridazin-3-yl]amino]-3-methyl-imidazo[4,5-b]pyridin-5-yl]oxy-4-methyl-pyridine-2-carbonitrile], the IC50 in assay [5] turned out to be 32.3 nM; in assay [6] it was 205 nM; in assay [4] it was 8.47 nM; in assay [2] (setting [9]), 148 nM; in assay [7], 2030 nM; in assay [3] (setting [10]), 181 nM.

Regarding `Cc1cc(C#N)ncc1Oc1cc(Nc2ccc(N3CCNCC3)cn2)c2ncn(C)c2n1` [Compound 180, 4-methyl-5-[3-methyl-7-[(5-piperazin-1-yl-2-pyridyl)amino]imidazo[4,5-b]pyridin-5-yl]oxy-pyridine-2-carbonitrile], the concentration for half-maximal inhibition (IC50) in assay [5] stood at 18.2 nM; in assay [6] it was 81.7 nM; in assay [4], 6.61 nM; in assay [2] (setting [9]), 84 nM; in assay [7], 409 nM; in assay [3] (setting [10]), 769 nM.

`Cc1cc(C#N)ncc1Oc1cc(Nc2cnn(CCN3CCOCC3)c2)c2ncn(C)c2n1` [Compound 186, 4-methyl-5-[3-methyl-7-[[1-(2-morpholinoethyl)pyrazol-4-yl]amino]imidazo[4,5-b]pyridin-5-yl]oxy-pyridine-2-carbonitrile]: the IC50 in assay [5] came to 22.2 nM; in assay [6] it was 77.2 nM; in assay [4] it was 6.27 nM; in assay [2] (setting [9]) it was 229 nM; in assay [7], 257 nM; in assay [3] (setting [10]) it was 241 nM.

The values are drawn from US11564923B2, “Compounds and pharmaceutical compositions thereof for the treatment of inflammatory disorders” (Galapagos NV, priority 2017, dated 2023).
